PubChem BioAssay (NCI)
“And” between values parts separate entries of the source, which are not always exact repeats. Identical values can stand only once.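 48-hour exposure; five concentrations; linearly interpolated endpoints. GI50 marks 50% less growth. TGI: concentration producing complete growth inhibition.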

What was measured:
Assay in all cases: NCI tumour cell line growth inhibition, 48 h
UO-31 renal = tested on: UO-31 renal
MALME-3M melanoma = tested on: MALME-3M melanoma
HOP-92 NSCLC = tested on: HOP-92 NSCLC
M14 melanoma = tested on: M14 melanoma
DU-145 prostate = tested on: DU-145 prostate
OVCAR-8 ovarian = tested on: OVCAR-8 ovarian
NCI/ADR-RES ovarian = tested on: NCI/ADR-RES ovarian

SMILES | GI50 (UO-31 renal) [µM] | TGI (UO-31 renal) [µM] | GI50 (MALME-3M melanoma) [µM] | TGI (MALME-3M melanoma) [µM] | GI50 (HOP-92 NSCLC) [µM] | TGI (HOP-92 NSCLC) [µM] | GI50 (M14 melanoma) [µM] | TGI (M14 melanoma) [µM] | GI50 (DU-145 prostate) [µM] | TGI (DU-145 prostate) [µM] | GI50 (OVCAR-8 ovarian) | TGI (OVCAR-8 ovarian) [µM] | GI50 (NCI/ADR-RES ovarian) [µM] | TGI (NCI/ADR-RES ovarian) [µM]
CCOC(=O)Nc1nc2c(F)c(F)c(F)cc2s1 | > 100 | > 100 | > 100 | > 100 | 15.4 | 97.5 | > 100 | > 100 | 75.1 | > 100 | 48.1 µM | > 100 | > 100 | > 100
Nc1c(C(=O)Nc2cccc3ccccc23)sc2nc3c(cc12)CCCC3 | 3.47 | > 100 |  |  | 0.0769 | 9.29 | 0.464 | > 100 | 2.62 | > 100 | 4.56 µM | > 100 | 0.833 | > 100
Cc1cc2nc3ccc(N=Nc4ccc(N(C)C)cc4)cc3n(-c3ccccc3)c-2cc1=N | 0.0333 | 0.82 |  |  | 0.0325 | 0.386 | 0.0657 | 0.239 | 0.0208 | 0.123 | 0.0232 µM and 0.0414 µM |  | 0.279 | 3.13
O=C1Nc2ccccc2C12CC(c1ccccc1)=NN2 (stereo not given) | 14.6 | > 100 | 3.89 | > 100 | 1.65 | 9.43 | 4.9 | 46.3 | 9.63 | 51.1 | 9.28 µM | 96.9 | 7.49 | > 100
CC(C)(C)c1ccc(C(=O)N/N=C/c2ccc(O)cc2O)cc1 | 0.24 | 2.28 | 0.478 | 5.19 | 1.65 | 13.7 | 0.409 | 9.83 | 0.564 | 14 | 0.54 µM | > 100 | 0.351 | 19.3
Cc1ccc(C(=O)Nc2ccc(CN3CCN(C)CC3)c(C(F)(F)F)c2)cc1C#Cc1cncc2ncccc12 | 0.191 | 0.903 | 0.113 | 0.951 | 0.147 | 1.28 | 0.0877 | 0.9 | 0.388 | 1.53 | 0.446 µM | 4.96 | 0.502 | 16
COC(=O)[C@]12CC[C@@H](C)[C@H](C)[C@@H]1C1=CC[C@@H]3[C@@]4(C)C(c5ncon5)=C[C@@](C)(CO)C4=CC[C@@]3(C)[C@]1(C)CC2 | 1.69 | 3.2 | 1.67 | 3.55 | 1.98 | 4.04 | 2.07 | 4.88 | 1.77 | 3.26 | 3.41 µM | 10.2 | 2.28 | 5.72
Cc1cc(N(CCCNc2ccnc3cc(Cl)ccc23)Cc2cccs2)nc(Cl)n1 | 0.986 | 7.73 | 3.06 | 13.5 | 2.63 | 20 | 1.81 | 4.54 | 7.9 | 23.1 | 4.83 µM | 34.9 | 2.64 | 28.5
O=C(Cc1ccc(/C=C/C(=O)c2ncc[nH]2)cc1)Nc1ccc(Br)cc1 | 1.79 | 3.86 | 3.12 | 7.69 | 6.74 | > 16.7 | 3.11 | 7.83 | 1.1 | 4.89 | 4.04 µM | > 16.7 | 4.61 | > 16.7
CC(C)[C@@H](C(=O)O[C@@H]1/C=C/C(=O)O[C@@H](C)CCC/C=C/[C@@H]2C[C@H](O)C[C@H]21)[N+](C)(C)C | > 100 | > 100 | > 100 | > 100 |  |  | > 100 | > 100 | > 100 | > 100 | > 100 µM | > 100 | > 100 | > 100
N#Cc1cc2cc3c4c(c2oc1=O)CCCN4CCC3 |  | > 100 |  |  |  | > 100 |  | > 100 |  | > 100 |  | > 100 |  | > 100
CC1OC(OC2C(OC3C[C@@]4(C)C(C[C@H](O)[C@H]5[C@H](C6(C)CCC(C(C)(C)O)O6)CCC54C)[C@]4(C)CC[C@@H](O)C(C)(C)C34)OC(CO)C(O)C2O)C(O)C(O)C1O (stereo not given in full) (tested in a mixture with another compound) |  | > 100 |  |  |  | > 100 |  | > 100 |  | > 100 |  | > 100 |  | 
COc1ccc2nc(-c3ccccc3)cc(Nc3ccc(/C(C)=N/O)cc3)c2c1 | 41.3 | > 100 | 2.8 | 9.92 | 0.821 | 22.5 | 1.46 | 2.78 | 2.8 | > 23 | 3.02 µM | > 27.5 | 2.75 | > 24.6
Clc1ccccc1-c1nc2ccccc2[nH]1 | 90.8 | > 100 | > 100 | > 100 | 42.1 | > 100 | > 100 | > 100 | > 100 | > 100 | > 100 µM | > 100 | > 100 | > 100
O=C1OCC2=C1C(c1cccc(F)c1)c1cc3c(cc1N2CCO)OCCO3 (stereo not given) | 0.276 | > 50 | 0.305 | > 50 | 2.07 | > 50 | 0.105 | > 50 | 0.22 | > 50 | 0.244 µM | > 50 | 0.208 | > 50
O=C1C2C(C(=O)[N]1[Hg][c]1ccccc1)C1(Cl)C(Cl)=C(Cl)C2(Cl)C1(Cl)Cl (stereo not given) | 1.73 | 3.57 | 1.32 | 3.02 | 1.87 | 3.97 | 1.16 | 2.43 | 1.66 | 3.29 |  |  | 2.69 | 8.97
NC(=O)Nc1ccc2ncnc(Nc3ccc(Cl)cc3)c2c1 | 6.96 | > 65.6 | 28.2 | > 77.9 |  |  | 24.4 | 68.6 | 4.21 | > 100 | 20.4 µM | > 96.6 | 18.3 | > 81.5
